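Method: 48-hour compound exposure of cells in 96-well plates, five concentrations, linear interpolation of endpoints. GI50 = concentration required for 50% inhibition of growth.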 The source made the active and inactive calls. Rule as the data show it: active = GI50 up to about 1.1 µM and inactive = higher.

Among the test systems are UACC-257; Hs-578T; NCI-H226; SK-MEL-2; MCF7; HCT-15; ACHN; SK-MEL-5; SF-295; MDA-MB-435; COLO 205; OVCAR-4; SK-MEL-28; SF-539; MDA-MB-231; K562; A549; IGROV-1; EKVX; LOX IMVI.
Test in all cases: NCI-60 cell line screen, 48 h

Take `c1ccc(-c2nnc(-c3ccccn3)c3c2C[C@@H]2C[C@@H]4Cc5c(-c6ccccn6)nnc(-c6ccccn6)c5[C@@H]4[C@H]32)nc1`: the GI50 with UACC-257 is 66.7 µM (inactive); in the assay on Hs-578T, 70.3 µM (inactive); in the assay on NCI-H226, 24.2 µM (inactive); with SK-MEL-2 it was 51.1 µM (inactive); in the assay with MCF7 it was 66.1 µM (inactive); with HCT-15 it was 38.8 µM. In addition, the GI50 in the assay with ACHN is 24.9 µM (inactive); in the assay with SK-MEL-5, 27.8 µM (inactive); in the assay with SF-295, 58.9 µM (inactive); in the assay with MDA-MB-435 it was 50.6 µM (inactive); with COLO 205, 35.1 µM (inactive); in the assay on OVCAR-4, 38.5 µM (inactive). Further, the GI50 with SK-MEL-28 is 34.8 µM (inactive); in the assay with SF-539, 85.7 µM (inactive); in the assay on MDA-MB-231, > 100 µM (inactive); in the assay on K562 it was 18.3 µM (inactive); in the assay on A549, 29 µM (inactive); in the assay with IGROV-1, 58.5 µM (inactive). The GI50 with EKVX was 18 µM (inactive); with LOX IMVI it was 55.5 µM (inactive).
As for `CCOC(=O)c1c(SCc2ccccc2)nc2c3ccccc3ccn12`, the GI50 was > 100 µM (inactive) in the assay with UACC-257; 21.4 µM (inactive) with Hs-578T; 33.7 µM (inactive) in the assay with NCI-H226; > 100 µM (inactive) in the assay on SK-MEL-2; > 100 µM (inactive) in the assay on MCF7; greater than 100 µM in the assay on HCT-15. The GI50 in the assay with ACHN was 24 µM (inactive); in the assay on SK-MEL-5, > 100 µM (inactive); in the assay on SF-295 it was 40.7 µM (inactive); in the assay with MDA-MB-435 it was > 100 µM (inactive); in the assay on COLO 205 it was > 100 µM (inactive); in the assay on OVCAR-4, 56 µM (inactive). Moreover, the GI50 in the assay with SK-MEL-28 is > 100 µM (inactive); in the assay with SF-539, 79.4 µM (inactive); in the assay on MDA-MB-231, > 100 µM (inactive); in the assay on K562, > 100 µM (inactive); in the assay on A549, > 100 µM (inactive); in the assay on IGROV-1 it was 38.9 µM (inactive). In addition, the GI50 with EKVX and in the assay on LOX IMVI was > 100 µM (inactive) each time.
For the molecule `OC(c1nc2ccccc2s1)(C(F)(F)F)C(F)(F)F`, the GI50 was > 100 µM (inactive) in the assay with UACC-257; > 100 µM (inactive) with Hs-578T; > 100 µM (inactive) in the assay on NCI-H226; > 100 µM (inactive) in the assay with SK-MEL-2; > 100 µM (inactive) in the assay with MCF7; greater than 100 µM in the assay on HCT-15. In addition, the GI50 with ACHN, in the assay with SK-MEL-5, with SF-295, in the assay with MDA-MB-435, with COLO 205 and with OVCAR-4 was > 100 µM (inactive) throughout. Besides, the GI50 in the assay on SK-MEL-28, with SF-539, with MDA-MB-231, with K562, in the assay with A549 and in the assay on IGROV-1 was > 100 µM (inactive) each time. The GI50 with EKVX and with LOX IMVI was > 100 µM (inactive) in each case.
On to `CCOC(=O)NC(C(F)(F)F)(C(F)(F)F)P(=O)(OC(C)C)OC(C)C`, for which the GI50 with UACC-257 is > 100 µM (inactive); in the assay on Hs-578T, > 100 µM (inactive); in the assay on NCI-H226, 58.7 µM (inactive); in the assay on SK-MEL-2 it was > 100 µM (inactive); in the assay with MCF7, > 100 µM (inactive); with HCT-15 it was greater than 100 µM. In addition, the GI50 with ACHN, with SK-MEL-5, in the assay on SF-295, with MDA-MB-435, in the assay with COLO 205 and in the assay on OVCAR-4 was > 100 µM (inactive) each time. Besides, the GI50 in the assay with SK-MEL-28, with SF-539, in the assay with MDA-MB-231, in the assay on K562, in the assay with A549 and in the assay on IGROV-1 was > 100 µM (inactive) in each case. The GI50 in the assay on EKVX and in the assay on LOX IMVI was > 100 µM (inactive) in each case.
